The values below come from ChEMBL document CHEMBL5729210, “Benzodiazepine derivatives as RSV inhibitors” (2022).

The structures appear in SMILES notation. Values joined by “and” are separate entries in the source; they are usually repeats but may differ in a detail not shown here. Identical values can stand only once. A value given as a limit tells only on which side of the number the result lay.

The nature of the experiment: RSV-A Assay: The description is Japanese.

Take `C[C@@H]1COCCN1c1ncccc1-c1nnc(NC2N=C(c3ccccc3)c3ccccc3NC2=O)o1` (some centres not stated): the EC50 (commonly the midpoint of the concentration-response curve) is under 400 nM.
In the case of `O=C1Nc2ccccc2C(c2ccccc2)=NC1Nc1nnc(-c2ncc(N3CCOCC3)cc2Cl)o1` (configuration not stated), the EC50 was over 800 nM.
Compound `COc1cc(-c2nnc(NC3N=C(c4ccccc4)c4ccccc4NC3=O)o2)ccc1F` (configuration not stated) came in with an EC50 of under 400 nM.
`O=C1Nc2ccccc2C(c2ccccc2)=N[C@@H]1Nc1nnc(-c2ccnn2-c2ccccc2)o1` registered an EC50 of over 800 nM.
The figure for `O=C1Nc2ccccc2C(c2ccccc2)=NC1Nc1nnc(-c2ccc(F)cc2N2CCOCC2)o1` (configuration not stated) is under 400 nM; for `COCc1cccc(-c2nnc(NC3N=C(c4ccccc4)c4ccccc4NC3=O)o2)n1` (configuration not stated) it is over 800 nM; for `O=C1Nc2ccccc2C(c2ccccc2)=N[C@@H]1Nc1nnc(-c2ccc(F)cc2N2CC3CCC(C2)O3)o1` it is “in the range around 600 nM”.
With `O=C1Nc2ccccc2C(c2ccccc2)=N[C@@H]1Nc1nnc(-c2ncc(C(F)(F)F)cc2N[C@H]2CCC[C@H]2O)o1` the entry was “in the range around 600 nM”; with `CCOC(=O)c1nnc(NC2N=C(c3ccccc3)c3ccccc3NC2=O)o1` (configuration not stated), over 800 nM.
With `O=C1Nc2c(F)cccc2C(c2ccccc2)=N[C@H]1Nc1nnc(-c2ccccc2N2CCOCC2)o1` the figure was over 800 nM; with `COc1ccc(-c2nnc(NC3N=C(c4ccccc4)c4ccccc4NC3=O)o2)nc1` (configuration not stated), “in the range around 600 nM”.
On to `O=C1Nc2ccccc2C(c2ccccc2)=N[C@@H]1Nc1nnc(-c2ncc(C(F)(F)F)cc2N2CCOCC2)o1` [ZELICAPAVIR], for which the EC50 was < 400 nM (2×) and > 800 nM.
The figure for `O=C(O)c1ccncc1N1CCCCC1` is over 800 nM; for `CN1CCN(c2cc(C(F)(F)F)cnc2-c2nnc(N[C@H]3N=C(c4ccccc4)c4ccccc4NC3=O)o2)CC1` it is “in the range around 600 nM”; for `O=C1Nc2ccccc2C(c2ccccc2)=NC1Nc1nnc(C2(F)CC2)o1` (configuration not stated) it is over 800 nM.
The figure for `CCOC(=O)c1nc(-c2cnn(C)c2)sc1N1CCOCC1` is under 400 nM; for `O=C1Nc2ccccc2C(c2ccccc2)=NC1Nc1nnc(CC(F)(F)F)o1` (configuration not stated) it is over 800 nM.
With `O=C1Nc2ccccc2C(c2ccccc2)=NC1Nc1nnco1` (configuration not stated) the figure was over 800 nM; with `COCCN(C)c1ccc(-c2nnc(NC3N=C(c4ccccc4)c4ccccc4NC3=O)o2)cc1` (configuration not stated), over 800 nM; with `O=C1Nc2ccccc2C(c2ccccc2)=N[C@@H]1Nc1nnc(-c2ncc(C(F)(F)F)cc2N2CCOc3ccccc32)o1`, over 800 nM.
Consider `COCCOc1ccc(C(=O)OC)cc1`, for which the EC50 is over 800 nM.
Regarding `CCOC(=O)c1ncc(N2CCCC2)cc1N1CCOCC1`, the EC50 was under 400 nM.
The figure for `O=C1Nc2ccccc2C(c2ccccc2)=N[C@@H]1Nc1nnc(-c2ncc(C3CC3)cc2N2CC3CCC(C2)O3)o1` is under 400 nM; for `COc1ccc(-c2ccc(NC3N=C(c4ccccc4)c4ccccc4NC3=O)nn2)cc1` (configuration not stated) it is over 800 nM; for `Cc1cccc(-c2nnc(NC3N=C(c4ccccc4)c4ccccc4NC3=O)o2)n1` (configuration not stated) it is over 800 nM.
The figure for `CC1(C)C[C@@H]1c1nnc(NC2N=C(c3ccccc3)c3ccccc3NC2=O)o1` (some centres not stated) is over 800 nM; for `O=C1Nc2ccccc2C(c2ccccc2)=NC1Nc1cc(-c2ccccc2)ncn1` (configuration not stated) it is over 800 nM.
